Results published in ChEMBL document CHEMBL5053551, “Structure-Based Design of Dual Partial Peroxisome Proliferator-Activated Receptor γ Agonists/Soluble Epoxide Hydrolase Inhibitors” (J Med Chem, 2021).
In brackets after ≈: the same amount, converted by molar mass. Activity calls are given as the source filed them. The calls are words filed in the database; no cut-off is given here.

Columns and labels:
HepG2 = assay: Cytotoxicity against human HepG2 cells assessed as reduction in ATP level at above 25 to 50 uM after 72 hrs by CellTiter-glo luminescence assay; format: cell-based; settings: hepg2, 72 h, dose 25-50 µM
[1] = Solubility of compound in DPBS buffer; format: physicochemical
[2] = molecular target: T1, Peroxisome proliferator-activated receptor gamma (Homo sapiens) (UniProt P37231); assay: Partial agonist activity at recombinant sGSF-PPARgamma (unknown origin) assessed as CBP-1 recruitment by HT-FRET assay relative to control
T1 sequence (whole entry): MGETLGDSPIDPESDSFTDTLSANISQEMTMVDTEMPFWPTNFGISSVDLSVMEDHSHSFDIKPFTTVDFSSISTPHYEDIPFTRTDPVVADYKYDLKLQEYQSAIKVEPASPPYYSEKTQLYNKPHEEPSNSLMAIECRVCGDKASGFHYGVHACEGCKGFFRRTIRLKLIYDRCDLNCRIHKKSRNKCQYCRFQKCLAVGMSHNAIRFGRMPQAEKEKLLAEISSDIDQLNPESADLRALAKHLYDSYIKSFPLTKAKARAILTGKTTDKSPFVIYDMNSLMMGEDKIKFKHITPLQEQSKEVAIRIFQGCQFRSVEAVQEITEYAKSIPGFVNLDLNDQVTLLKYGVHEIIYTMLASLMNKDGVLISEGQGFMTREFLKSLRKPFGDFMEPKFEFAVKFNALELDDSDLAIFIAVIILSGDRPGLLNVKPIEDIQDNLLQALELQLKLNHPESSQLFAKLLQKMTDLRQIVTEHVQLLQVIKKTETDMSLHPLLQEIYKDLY

[3] = molecular target: T2, Nuclear receptor subfamily 1 group I member 3 (Homo sapiens, UniProt Q14994); assay: Partial agonist activity at GAL4-tagged human CAR LBD expressed in HEK293T cells at 3 uM incubated for 12 to 14 hrs by dual-Glo luciferase assay; format: cell-based; settings: time 12-14 hrs
T2 sequence (Q14994 whole entry): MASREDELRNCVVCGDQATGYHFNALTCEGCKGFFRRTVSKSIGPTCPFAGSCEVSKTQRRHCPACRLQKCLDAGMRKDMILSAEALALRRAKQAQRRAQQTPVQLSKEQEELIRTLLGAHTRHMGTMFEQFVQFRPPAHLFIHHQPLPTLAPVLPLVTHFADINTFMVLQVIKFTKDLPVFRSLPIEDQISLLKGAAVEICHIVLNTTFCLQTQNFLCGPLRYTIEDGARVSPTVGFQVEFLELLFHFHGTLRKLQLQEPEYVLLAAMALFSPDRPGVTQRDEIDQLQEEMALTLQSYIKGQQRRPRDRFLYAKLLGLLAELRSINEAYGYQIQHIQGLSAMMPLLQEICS

[4] = Stability of compound in Sprague-Dawley rat liver microsomes assessed as half life at 10 uM preincubated for 5 mins in presence of NADPH regenerating system followed by microsomal addition and measured upto 60 mins by HPLC analysis; format: ADME, Microsome; settings: time 65 min
[5] = molecular target: T3, Peroxisome proliferator-activated receptor gamma (Homo sapiens, UniProt P37231); assay: Partial agonist activity at sGSF-PPARgamma (unknown origin) assessed as CBP-1 recruitment by HT-FRET assay
T3 sequence (P37231 whole entry): T1 sequence (whole entry)

3T3-L1 = assay: Induction of cell differentiation in mouse 3T3-L1 cells assessed as increase in differentiation cocktail-induced lipid accumulation at 0.3 to 3 uM incubated for 2 days by Oil-Red O staining based assay; format: functional; settings: dose 0.3-3 µM, time 2.0 day
[6] = Stability of compound in human liver microsomes assessed as half life at 10 uM preincubated for 5 mins in presence of NADPH regenerating system followed by microsomal addition and measured upto 60 mins by HPLC analysis; format: ADME, Microsome; settings: time 65 min
[7] = molecular target: T4, Peroxisome proliferator-activated receptor alpha (Homo sapiens) (UniProt Q07869); assay: Partial agonist activity at GAL4-tagged human PPARalpha LBD expressed in HEK293T cells at 3 uM incubated for 12 to 14 hrs by dual-Glo luciferase assay; format: cell-based; settings: time 12-14 hrs
T4 sequence (whole entry): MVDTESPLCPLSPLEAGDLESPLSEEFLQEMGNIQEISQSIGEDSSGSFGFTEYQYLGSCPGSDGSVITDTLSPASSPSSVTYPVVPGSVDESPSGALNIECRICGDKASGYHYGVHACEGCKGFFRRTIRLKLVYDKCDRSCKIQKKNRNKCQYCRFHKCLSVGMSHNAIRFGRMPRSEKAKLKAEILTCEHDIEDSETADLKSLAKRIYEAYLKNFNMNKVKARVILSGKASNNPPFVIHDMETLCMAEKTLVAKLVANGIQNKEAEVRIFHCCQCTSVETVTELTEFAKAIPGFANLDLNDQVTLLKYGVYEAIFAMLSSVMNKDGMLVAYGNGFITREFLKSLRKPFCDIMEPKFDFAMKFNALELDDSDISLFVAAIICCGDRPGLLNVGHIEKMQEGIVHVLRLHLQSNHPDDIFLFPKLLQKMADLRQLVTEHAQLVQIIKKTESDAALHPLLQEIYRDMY

[8] = molecular target: T5, Bifunctional epoxide hydrolase 2 (Mus musculus, UniProt P34914); assay: Inhibition of N-terminal His-tagged mouse sEH (2 to 554 residues) expressed in Escherichia coli Rosetta2 (DE3) assessed as reduction in 6-methoxy-2-naphthaldehyde formation using PHOME as substrate preincubated for 30 to 45 mins followed by substrate addition and measured after 30 to 45 mins by fluorescence assay
T5 sequence (P34914 whole entry): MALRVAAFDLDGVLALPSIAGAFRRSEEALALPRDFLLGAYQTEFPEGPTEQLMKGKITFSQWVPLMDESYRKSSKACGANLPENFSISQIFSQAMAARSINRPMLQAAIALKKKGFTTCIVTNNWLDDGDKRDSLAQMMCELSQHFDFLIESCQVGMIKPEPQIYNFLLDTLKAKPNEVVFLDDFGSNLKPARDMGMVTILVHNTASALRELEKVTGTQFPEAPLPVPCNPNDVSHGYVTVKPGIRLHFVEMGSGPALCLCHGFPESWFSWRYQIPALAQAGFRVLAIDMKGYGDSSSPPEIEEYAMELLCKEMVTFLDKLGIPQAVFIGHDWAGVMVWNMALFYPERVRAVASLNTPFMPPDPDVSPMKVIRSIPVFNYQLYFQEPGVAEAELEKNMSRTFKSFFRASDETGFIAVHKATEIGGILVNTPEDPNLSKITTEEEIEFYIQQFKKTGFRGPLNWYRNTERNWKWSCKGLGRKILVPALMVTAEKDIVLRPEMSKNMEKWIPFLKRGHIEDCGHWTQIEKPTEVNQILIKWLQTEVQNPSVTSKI

| SMILES | Activity (HepG2) | solubility [1] | Emax [2] | Activity [3] | half-life at 10 µM [4] | EC50 [5] | Activity (3T3-L1) | half-life at 10 µM [6] | Activity [7] | IC50 [8] |
| --- | --- | --- | --- | --- | --- | --- | --- | --- | --- | --- |
| O=C(NCc1ccc(NS(=O)(=O)C2CC2)cc1C(F)(F)F)c1ccc2c(ccn2Cc2cccc(F)c2)c1 | Toxic | 3 µM (≈ 1.64 µg/mL) | 28% | Active | 0.95 h | 180 nM | Active | 1.38 h | inactive | 202 nM |
| CS(=O)(=O)Nc1ccc(CNC(=O)c2ccc3c(ccn3Cc3cccc(F)c3)c2)c(C(F)(F)F)c1 | Toxic | 3 µM (≈ 1.56 µg/mL) | 19% | Active | 0.867 h | 330 nM | Active | 1.68 h | inactive | 46 nM |
